Test results from patent publication US10583124B2, “Wild bird treatment composition and methods” (priority 2016, dated 2020).
Where two headings read alike, the source gives them in different places.

Tests used:
[1] = format: physicochemical; settings: in acetonitrile, positive control, 1 hour
Experimental: Composition 10 was exposed to elevated temperature (75° C.) for 1 hour to determine if fenbendazole inside composition 10 was being protected from the effects of high temperature. Control composition 10 was left at room temperature for the same time period. Additionally, 100 ppm fenbendazole in acetonitrile was used as a positive control and exposed to the same conditions (room and elevated temperature for 1 hour).

[2] = as long as protected from photo oxidation; cited from earlier work

Fenbendazole extracted from 100 ppm fenbendazole solution ([1]; 21 °C (room temperature)): 115.18 ppm
Fenbendazole extracted from 100 ppm fenbendazole solution ([1]; 75 °C): 93.36 ppm
Structure (SMILES): COC(=O)Nc1nc2ccc(Sc3ccccc3)cc2[nH]1 [fenbendazole]
humidity range in which stable [2]: 10-100%
temperature range in which stable [2]: 4.4-37.7 °C
